Measured values taken from US20240158446A1, “CYCLIC COMPOUND HAVING SELECTIVE INHIBITORY ACTION ON KRAS OVER HRAS AND NRAS” (CHUGAI SEIYAKU KABUSHIKI KAISHA, priority 2021, published 2024).

Assays:
[1] = biological target: GDP-bound HRAS wild-type protein (Homo sapiens, UniProt P01112); test: Binding to HRAS by surface plasmon resonance (SPR), Single Cycle Kinetics; conditions: SPR, GDP-bound HRAS wild-type protein vs GDP-bound KRAS wild-type protein
[2] = biological target: GDP-bound NRAS wild-type protein (Homo sapiens, UniProt P01111); test: Binding to NRAS by surface plasmon resonance (SPR), Single Cycle Kinetics; conditions: SPR, GDP-bound NRAS wild-type protein vs GDP-bound KRAS wild-type protein
[3] = biological target: GDP-bound KRAS wild-type protein (Homo sapiens, UniProt P01116); test: Binding to KRAS by surface plasmon resonance (SPR), Single Cycle Kinetics; conditions: SPR Single Cycle Kinetics, GDP-bound KRAS wild-type protein, 1:1 binding model; read-out: KRAS KD
Chain of GDP-bound KRAS wild-type protein (P01116 whole entry): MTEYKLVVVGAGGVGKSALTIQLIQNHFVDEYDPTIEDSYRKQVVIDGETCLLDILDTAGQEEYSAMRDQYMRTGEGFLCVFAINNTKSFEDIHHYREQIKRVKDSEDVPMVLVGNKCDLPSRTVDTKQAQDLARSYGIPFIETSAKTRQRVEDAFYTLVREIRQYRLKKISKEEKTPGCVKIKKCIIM

Chain of GDP-bound NRAS wild-type protein (P01111 whole entry): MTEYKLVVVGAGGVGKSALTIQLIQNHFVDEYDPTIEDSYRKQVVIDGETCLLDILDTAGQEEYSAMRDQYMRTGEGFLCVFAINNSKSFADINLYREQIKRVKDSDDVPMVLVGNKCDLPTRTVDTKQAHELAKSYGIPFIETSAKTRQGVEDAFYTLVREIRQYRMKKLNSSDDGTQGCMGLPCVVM
Chain of GDP-bound HRAS wild-type protein (P01112 whole entry): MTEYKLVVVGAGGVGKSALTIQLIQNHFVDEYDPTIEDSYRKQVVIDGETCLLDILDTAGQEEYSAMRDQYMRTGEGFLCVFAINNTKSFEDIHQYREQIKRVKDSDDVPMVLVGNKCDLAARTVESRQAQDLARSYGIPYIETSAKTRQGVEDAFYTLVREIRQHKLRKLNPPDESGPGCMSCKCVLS

SMILES	Kd [3] [nM]	HRAS/KRAS (ratio of KD value with respect to HRAS to KD value with respect to KRAS) [1]	NRAS/KRAS (ratio of KD value with respect to NRAS to KD value with respect to KRAS) [2]
CCO[C@@H]1C[C@H]2C(=O)NC3(CCC3)C(=O)N(C)[C@@H](C3CCCC3)C(=O)N(CCC3CCCC3)[C@H](C(=O)N(C)C)CC(=O)N(C)[C@@H](CC)C(=O)N[C@@H]([C@@H](C)CC)C(=O)N(C)CC(=O)N(C)[C@H]3CCCCCN(C3=O)[C@@H](Cc3ccc(C(F)(F)F)cc3)C(=O)N(C)CC(=O)N[C@@H](CCc3cc(F)c(C(F)(F)F)c(F)c3)C(=O)N2C1 [PP0636]	8.6	A (a compound having 10 or more and less than 20 is denoted as A)	A (a compound having 10 or more and less than 20 is denoted as A)
CCO[C@@H]1C[C@H]2C(=O)NC3(CCC3)C(=O)N(C)[C@@H](C3CCCC3)C(=O)N(CCc3ccccc3)[C@H](C(=O)N(C)C)CC(=O)N(C)[C@@H](CC)C(=O)N[C@@H]([C@@H](C)CC)C(=O)N(C)CC(=O)N(C)[C@H]3CCCCCN(C3=O)[C@@H](Cc3ccc(C(F)(F)F)cc3)C(=O)N(C)CC(=O)N[C@@H](CCc3cc(F)c(C(F)(F)F)c(F)c3)C(=O)N2C1 [PP0637]	23	B (a compound having 3 or more and less than 10 is denoted as B)	B (a compound having 3 or more and less than 10 is denoted as B)
CCCN1C(=O)[C@H](C2CCCC2)N(C)C(=O)C2(CCC2)NC(=O)[C@@H]2C[C@@H](OCC)CN2C(=O)[C@H](CCc2cc(F)c(C(F)(F)F)c(F)c2)NC(=O)CN(C)C(=O)[C@H](Cc2ccc(C(F)(F)F)cc2)N2CCCCC[C@@H](C2=O)N(C)C(=O)CN(C)C(=O)[C@H]([C@@H](C)CC)NC(=O)[C@H](CC(C)C)N(C)C(=O)C[C@H]1C(=O)N1CCOCC1 [PP0639]	8.5	B (a compound having 3 or more and less than 10 is denoted as B)	B (a compound having 3 or more and less than 10 is denoted as B)
CCO[C@@H]1C[C@H]2C(=O)NC3(CCC3)C(=O)N(C)[C@@H](C3CCCC3)C(=O)N(CC)[C@H](C(=O)N(C)C)CC(=O)N(C)[C@@H](CC)C(=O)N[C@@H]([C@@H](C)CC)C(=O)N(C)CC(=O)N(C)[C@H]3CCCCN(C3=O)[C@@H](Cc3ccc(C(F)(F)F)cc3)C(=O)N(C)CC(=O)N[C@@H](CCc3cc(F)c(C(F)(F)F)c(F)c3)C(=O)N2C1 [PP0643]	0.074	B (a compound having 3 or more and less than 10 is denoted as B)	C (A compound having a KD ratio of 0.1 or more and less than 3 is denoted as C)

Second part, led by results:

Kd [3] [nM]	SMILES	HRAS/KRAS (ratio of KD value with respect to HRAS to KD value with respect to KRAS) [1]	NRAS/KRAS (ratio of KD value with respect to NRAS to KD value with respect to KRAS) [2]
0.028	CCO[C@@H]1C[C@H]2C(=O)NC3(CCC3)C(=O)N(C)[C@@H](C3CCCC3)C(=O)N(CCC3CCC3)[C@H](C(=O)N(C)C)CC(=O)N(C)[C@@H](CC)C(=O)N[C@@H]([C@@H](C)CC)C(=O)N(C)CC(=O)N(C)[C@H]3CCCCN(C3=O)[C@@H](Cc3ccc(C(F)(F)F)cc3)C(=O)N(C)CC(=O)N[C@@H](CCc3cc(F)c(C(F)(F)F)c(F)c3)C(=O)N2C1 [PP0645]	B (a compound having 3 or more and less than 10 is denoted as B)	B (a compound having 3 or more and less than 10 is denoted as B)
0.68	CCO[C@@H]1C[C@H]2C(=O)NC3(CCC3)C(=O)N(C)[C@@H](C3CCCC3)C(=O)N(CCc3ccccc3)[C@H](C(=O)N(C)C)CC(=O)N(C)[C@@H](CC)C(=O)N[C@@H]([C@@H](C)CC)C(=O)N(C)CC(=O)N(C)[C@H]3CCCCN(C3=O)[C@@H](Cc3ccc(C(F)(F)F)cc3)C(=O)N(C)CC(=O)N[C@@H](CCc3cc(F)c(C(F)(F)F)c(F)c3)C(=O)N2C1 [PP0647]	B (a compound having 3 or more and less than 10 is denoted as B)	C (A compound having a KD ratio of 0.1 or more and less than 3 is denoted as C)
